Laboratory results as given in patent US11384071B2, “Inhibitors of mechanotransduction to treat pain and modulate touch perception” (Max-Delbrück-Centrum für Molekulare Medizin in der …, priority 2016, dated 2022).

Columns and labels:
[1] = test system: mechanically gated currents in mechanoreceptors; assay: Pillar array analysis of mechanically gated currents in DRG mechanoreceptors; assay type: cell-based, mouse; details: for sensitivity of mechanically gated currents in mechanoreceptors: acutely cultured mouse sensory neurons; for pillar deflections at which mechanically-gated currents are significantly inhibited: mechanoreceptors, FIG. 2e
Experimental: (§1) HEK-293 cells (passage numbers 4-20) were cultured in DMEM plus 10% fetal calf serum (FCS). Neuro2A (N2A) cells were cultured in DMEM/Opti-MEM media plus 10% FCS.—Sensory DRG neurons were isolated from 4 week old Mus musculus (C57Bl/6). Approximately 20 ganglia were collected from each mouse and individual cells were isolated by treating ganglia with […] collagenase IV for 30 min, followed by 1 ml of 0.05% trypsin, in PBS, for 5-20 min at 37° C. Enzyme-treated ganglia, in DMEM/F-12 media containing 10% Horse Serum (HS), were disrupted by gently passaging through a 20 G needle; cells were then collected by centrifugation (1000 rpm, 3 min), washed and finally re-suspended in DMEM/F-12, 10% HS media (at no point were neurotrophins added to the culture). Sensory neurons were then seeded on EHS-laminin coated substrate and cultured overnight. Experiments involving isolated sensory neurons were conducted within 24-36 hours of isolation of the cells.
(§2) Whole-cell, patch-clamp recordings were conducted as previously described 5-7, using patch pipettes with a tip resistance of 3-6 MΩ, filled with a solution of: 110 mM KCl, 10 mM NaCl, 1 mM MgCl2, 1 mM EGTA and 10 mM HEPES, adjusted to pH 7.3 with KOH. (For experiments on DRG neurons 10 mM QX-314 was added to the pipette to block voltage-gated sodium channels 8 Extracellular solutions contained 140 mM NaCl, 4 mM KCl, 2 mM CaCl2, 1 mM MgCl2, 4 mM glucose, 10 mM HEPES, adjusted to pH 7.4 with NaOH. A Zeiss 200 inverted microscope and an EPC-10 amplifier in combination with Patchmaster software was used, data was analyzed using Fitmaster software (HEKA Electronik GmbH, Germany). Pipette and membrane capacitance were compensated using the auto function of Patchmaster, series resistance was compensated by at least 60% to minimize voltage errors. Mechanical stimuli were applied using a polished glass probe driven by the MM3A micromanipulator (Kleindiek Nanotechnik, Germany). […]
(§3) Briefly, elastomeric pillar arrays of defined dimensions were cast in PDMS with an elasticity of 2 MPa. Cells cultured on these arrays were monitored using whole-cell patch-clamp whilst a glass probe was used to apply repeated deflections (of differing magnitudes) to an individual pilus directly beneath the cell. Images were obtained of the pilus before and after deflection and images were analyzed off-line to determine the exact deflection for each data point. […] Images were analyzed off-line using Igor software (WaveMetrics, USA). […] A power analysis was used to determine that moderate to strong effects between samples could be detected with a sample size >4. […] For quantitative analysis of mechanosensitivity we measured responses in the most sensitive sub-population of mechanoreceptors, previously defined as Typell mechanoreceptors (Poole et al., 2014).

[2] = test system: mechanically gated currents in nociceptors; assay: Pillar array analysis of mechanically gated currents in DRG nociceptors; assay type: cell-based, mouse; details: for amplitude of mechanically gated currents in nociceptors: stimulus magnitudes between 100 and 500 nm
Experimental: as §1, §2, §3

[3] = test system: Piezo1 currents in N2A cells; assay: Pillar array patch-clamp analysis of mechanotransduction in N2A cells; assay type: cell-based
Experimental: Whole-cell, patch-clamp recordings were conducted as previously described 5-7, using patch pipettes with a tip resistance of 3-6 MΩ, filled with a solution of: 110 mM KCl, 10 mM NaCl, 1 mM MgCl2, 1 mM EGTA and 10 mM HEPES, adjusted to pH 7.3 with KOH. (For experiments on DRG neurons 10 mM QX-314 was added to the pipette to block voltage-gated sodium channels 8 Extracellular solutions contained 140 mM NaCl, 4 mM KCl, 2 mM CaCl2, 1 mM MgCl2, 4 mM glucose, 10 mM HEPES, adjusted to pH 7.4 with NaOH. A Zeiss 200 inverted microscope and an EPC-10 amplifier in combination with Patchmaster software was used, data was analyzed using Fitmaster software (HEKA Electronik GmbH, Germany). Pipette and membrane capacitance were compensated using the auto function of Patchmaster, series resistance was compensated by at least 60% to minimize voltage errors. Mechanical stimuli were applied using a polished glass probe driven by the MM3A micromanipulator (Kleindiek Nanotechnik, Germany). Mechanical stimuli were applied by either; indenting the cell soma or by culturing cells on elastomeric pillar arrays and applying the stimulus to the cell-substrate interface by deflecting an individual pilus.
Briefly, elastomeric pillar arrays of defined dimensions were cast in PDMS with an elasticity of 2 MPa. Cells cultured on these arrays were monitored using whole-cell patch-clamp whilst a glass probe was used to apply repeated deflections (of differing magnitudes) to an individual pilus directly beneath the cell. Images were obtained of the pilus before and after deflection and images were analyzed off-line to determine the exact deflection for each data point. Images were obtained using a 40×LD objective and a CoolSNAP EZ CCD camera. Images were analyzed off-line using Igor software (WaveMetrics, USA). The collection of stimulus-response data using pillar arrays generates data sets with variation in both x and y. In order to effectively compare groups for each cell studied we binned response data by stimulus size in the following bins: 0-10, 10-50, 50-100, 100-250, 250-500, 500-1000. For each cell, current amplitudes within each bin were averaged and then bins averaged between cells—we then tested for significance by testing whether the current amplitude for a given stimulation range (i.e. bin) differed between samples. A power analysis was used to determine that moderate to strong effects between samples could be detected with a sample size >4. Data sets were in excess of this number. To distinguish mechanoreceptors from nociceptors in the mixed population of acutely prepared DRG neurons, the shape of the generated action potential (AP) was used. […] For quantitative analysis of mechanosensitivity we measured responses in the most sensitive sub-population of mechanoreceptors, previously defined as Typell mechanoreceptors (Poole et al., 2014). This population was identified as those cells with APs lacking a hump in the falling phase and a full width at half maximum (FWHM) of at least 0.7 ms, (average, ±s.e.m.: 0.9±0.04 ms)
Endogenously expressed STOML3 in N2A cells is required to maintain Piezo channel sensitivity to membrane deflection^2. By precisely deflecting defined areas of the membrane-substrate interface using a pillar array we could activate Piezo1 currents in N2A cells with displacements ranging from 100-1000 nm (FIG. 2a). Both OB-1 and OB-2 reduced the sensitivity of mechanosensitive currents to pillar deflection (FIG. 2b). […]

Compound: Cc1ccnc(NC(=O)CSc2nnc3c4ccccc4n(Cc4ccccc4)c3n2)c1 [OB-2]
- sensitivity of mechanically gated currents in mechanoreceptors [1]: substantially reduced
- pillar deflections at which mechanically-gated currents are significantly inhibited [1]: less than 50 nm
- activation time constant for current activation τ1 ([2]; nociceptors): significantly slowed
- latency for mechanically gated currents ([2]; nociceptors): significantly slowed
- amplitude of mechanically gated currents in nociceptors [2]: significant reduction
- sensitivity of mechanosensitive currents to pillar deflection [3]: reduced

Compound: CCOC(=O)c1c(-c2ccccc2)oc2ccc(Oc3c([N+](=O)[O-])ncn3C)cc12 [OB-1, Ethyl 5-((1-methyl-4-nitro-1H-imidazol-5-yl)oxy)-2-phenylbenzofuran-3-carboxylate]
- sensitivity of mechanically gated currents in mechanoreceptors [1]: substantially reduced
- pillar deflections at which mechanically-gated currents are significantly inhibited [1]: up to 250 nm
- amplitude of mechanically gated currents in nociceptors [2]: significant reduction
- sensitivity of mechanosensitive currents to pillar deflection [3]: reduced
- pre-incubation time for maximal reduction of Piezo1 current amplitudes ([3]; 20 μM OB-1): 3 h
- Hill coefficient ([3]; Piezo1 current): 0.6
- IC50 ([3]; calculated from concentration dependence, read-out: IC50 on mechanically-activated (Piezo1) currents): 10 nM
